Read-outs that look alike come from different tables or passages of the source. *1 amine or outer side, *2 acyl side, *3 side chain or, on linkers, in order; H or OH if unused. Where a SMILES comes first, the peptide text is derived from it. Bridges are numbered along the chain shown (N, C = ends). [ ]: non-standard residue; d: D form. The star is where a group is joined. hTyr(3S-OH,4S-OH,3'-OSO3H) = N[C@H](C(=O)O)[C@H](O)[C@@H](O)c1ccc(O)c(OS(=O)(=O)O)c1; pTerphenylCO(4''-OnC5H11) = CCCCCOc1ccc(-c2ccc(-c3ccc(C(=O)*)cc3)cc2)cc1; Orn(4R-OH,5R-OH) = O=C([C@H](C[C@@H](O)[C@@H](O)N[*:3])N[*:1])[*:2]; hTyr(3S-OH,4S-OH) = N[C@H](C(=O)O)[C@H](O)[C@@H](O)c1ccc(O)cc1; Pro(3S-OH,4S-Me) = C[C@H]1CN[C@H](C(=O)O)[C@H]1O; X1 = CCCCCOc1ccc(-c2cc(-c3ccc(C(=O)*)cc3)no2)cc1; Gln(3R-OH) = NC(=O)C[C@@H](O)[C@H](N)C(=O)O; Hyp = O=C(O)[C@@H]1C[C@@H](O)CN1
Experiments:
OATP1B1 [1] = molecular target: T1, OATP1B1 (Homo sapiens, UniProt Q9Y6L6); assay: Inhibition of OATP1B1-mediated [3H]EβG uptake in HEK293 cells; conditions: for IC50: 0.2 µM EβG, 15 min pre-incubation + 15 min co-incubation; for OATP1B1 inhibitory potency compared with parent drug itraconazole: EβG uptake
T1 sequence (Q9Y6L6 1-691): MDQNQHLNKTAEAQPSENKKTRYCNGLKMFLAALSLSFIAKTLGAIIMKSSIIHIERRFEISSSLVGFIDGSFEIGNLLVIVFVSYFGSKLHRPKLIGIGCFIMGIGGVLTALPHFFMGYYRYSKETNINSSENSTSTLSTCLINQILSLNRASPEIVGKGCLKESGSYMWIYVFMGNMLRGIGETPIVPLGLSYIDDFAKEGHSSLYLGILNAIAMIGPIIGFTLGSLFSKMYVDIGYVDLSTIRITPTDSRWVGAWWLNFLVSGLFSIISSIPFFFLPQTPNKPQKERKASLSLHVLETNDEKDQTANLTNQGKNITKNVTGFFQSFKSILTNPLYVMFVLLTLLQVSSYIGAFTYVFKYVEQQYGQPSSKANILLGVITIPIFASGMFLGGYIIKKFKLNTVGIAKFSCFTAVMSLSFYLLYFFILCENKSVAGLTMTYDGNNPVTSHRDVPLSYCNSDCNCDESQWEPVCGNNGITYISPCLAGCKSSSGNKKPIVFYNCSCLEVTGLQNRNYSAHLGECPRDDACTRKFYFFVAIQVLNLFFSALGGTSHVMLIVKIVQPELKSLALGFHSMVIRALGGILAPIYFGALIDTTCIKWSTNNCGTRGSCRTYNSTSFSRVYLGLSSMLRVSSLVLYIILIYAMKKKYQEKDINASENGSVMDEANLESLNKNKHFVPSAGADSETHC
Protocol: (§1) In brief, radioactive uptake assays were performed utilizing HEK293 cell lines stably expressing OATP1B1 or OATP1B2, or cells expressing the respective vector control (VC) [17, 18]. […] Cells were cultured in Dulbecco’s Modified Eagle Medium (DMEM; Invitrogen) supplemented with 10% FBS; the media for cells expressing OATP1B1 or VC was supplemented with hygromycin B (25 mg/mL; Invitrogen), and blasticidin (37.5 mg/mL; Biovision).
(§2) For inhibition experiments, cells were seeded in 12- or 24-well plates in phenol red-free media and were incubated at 37 °C for 24 h; cells overexpressing OATP1B1 or VC were incubated with doxycycline (1 µg/mL) for 24 h. Cells were washed with warm PBS and pre-incubated with the indicated concentrations of each potential inhibitor (or an equal volume of vehicle) in phenol red-free DMEM (without FBS and supplements) at 37 °C for 15 min. […] The experiment was terminated by washing three times with ice-cold PBS. Cells were lysed with 1 N NaOH overnight at 4 °C, and the solution was neutralized with 2 M HCl. […] The OATP1B-mediated uptake was calculated by dividing the disintegrations per minute (dpm) from each replicate by the amount of protein (mg) and subtracting the dpm/mg protein in the VC cell line. The OATP1B1-mediated uptake at each concentration of each antifungal drug was then compared with the OATP1B1-mediated uptake when only an equal volume of vehicle (water or DMSO) was added without the antifungal drug.

OATP1B1 [2] = molecular target: T1, OATP1B1; assay: In vitro to in vivo extrapolation (FDA basic models: Cmax,ss/IC50 and R value); conditions: FDA 2020 guidance Equation (2), >1.1 indicates potential to inhibit in vivo
Excerpt: In brief, we utilized the equation Cmax,ss/IC50. To use this equation, we identified the mean total peak concentration at the steady-state of each potential inhibitor (Cmax,ss) from the published literature on the clinical pharmacokinetics of each agent (Supplementary Table S2). We then divided Cmax,ss by the IC50 of the respective agents. (1) CMax,ss/IC50
As indicated by the FDA guidelines, values of >0.1 indicate the potential for a clinically relevant interaction.
To utilize this equation, we used the previously determined Cmax,ss (Supplementary Table S2). Where necessary, the molar weight was used to convert the dose or Cmax,ss to µM. We determined the unbound fraction in plasma (fup) for each drug from publicly available literature. […] As recommended by the FDA guidelines, the fraction absorbed (Fa) and intestinal availability (Fg) were set to 1, fup was set to 1% when reported to be less than 1%, and the absorption constant (ka) was set to 0.1 min^−1 (as a worst-case estimate).

OATP1B2 = molecular target: T2, OATP1B2 (Mus musculus, UniProt Q9JJL3); assay: Inhibition of OATP1B2-mediated [3H]EβG uptake in HEK293 cells
T2 sequence (Q9JJL3 1-689): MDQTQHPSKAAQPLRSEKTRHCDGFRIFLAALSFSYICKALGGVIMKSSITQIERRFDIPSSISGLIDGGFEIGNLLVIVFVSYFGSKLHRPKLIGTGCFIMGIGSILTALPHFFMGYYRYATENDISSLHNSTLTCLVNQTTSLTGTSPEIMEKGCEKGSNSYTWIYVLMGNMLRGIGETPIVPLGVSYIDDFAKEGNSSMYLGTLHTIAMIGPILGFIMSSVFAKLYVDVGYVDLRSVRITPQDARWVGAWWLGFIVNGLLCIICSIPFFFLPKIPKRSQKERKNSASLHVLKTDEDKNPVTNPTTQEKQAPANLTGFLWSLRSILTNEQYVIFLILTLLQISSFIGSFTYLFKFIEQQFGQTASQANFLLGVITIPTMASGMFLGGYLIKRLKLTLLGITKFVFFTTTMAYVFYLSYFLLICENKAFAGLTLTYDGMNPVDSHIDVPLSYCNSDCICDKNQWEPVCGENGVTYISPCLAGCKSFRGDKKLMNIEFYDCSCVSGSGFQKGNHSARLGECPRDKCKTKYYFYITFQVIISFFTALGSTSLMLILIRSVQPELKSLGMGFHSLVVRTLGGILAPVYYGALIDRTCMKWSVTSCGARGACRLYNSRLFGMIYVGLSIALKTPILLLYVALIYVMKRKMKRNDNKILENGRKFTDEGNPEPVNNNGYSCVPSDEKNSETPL
Protocol: as §1, §2

[3] = cited from earlier work
OATP1B1 [4] = molecular target: T1, OATP1B1; assay: Competitive counterflow assay with 8-acetoxy-trisulfopyrene; type: cell-based; design: expressed in transfected cells; conditions: 5 µM ACE; venetoclax 200 µM, cyclosporin A 10 µM, paraformaldehyde 0.5%; 20 min
Protocol: Competitive counterflow assays were performed with 8-acetoxy-trisulfopyrene, an activatable fluorogenic probe for OATP1B1, as described previously. In brief, cells expressing a vector or OATP1B1 were seeded in 96-well opaque plates in phenol-red free DMEM media with 10% FBS and induced with doxycycline for 24 h. On the day of the experiment, the media was removed, and the cells were washed three times with warm PBS. The cells were then incubated for 20 min at 37 °C with 100 µL of 5 µM 8-acetoxypyrene-1,3,6-trisulfonate uptake buffer (ACE; 125 mM NaCl, 4.8 mM KCl, 1.2 mM CaCl2, 1.2 mM KH2PO4, […], 25 mM 2-N-morpholino), ethanesulfonic acid, and 5.6 mM glucose, with the pH adjusted to 5.5). […] The fluorescence was measured at excitation and emission wavelengths of 460 nm and 510 nm, respectively, after 20 min of incubation to control for the number of cells.
The plates were incubated for 20 min at 37 °C. In the final step, the supernatant was removed, and the cells were washed three times with 200 µL ice-cold PBS to stop the reaction. PBS was then removed and 200 µL of 0.1 N NaOH was added to each well to normalize the pH. The fluorescence was measured as described above after another 20 min incubation at room temperature. The levels of cell dye were reported as a percent of the measurement from cells containing ACE alone.

OATP1B1 [5] = test system: OATP1B1; design: method as in PMID 27273149; conditions: previous data, weak inhibition; cited from earlier work
OATP1B1 [6] = molecular target: T1, OATP1B1; assay: Radioactive uptake and membrane/intracellular fractionation in cells overexpressing OATP1B1 or vector; type: cell-based; design: expressed in transfected cells; conditions: 0.2 µM EβG or 1 µM venetoclax, 15 min
Protocol: For experiments seeking to directly determine if venetoclax is an OATP1B1 substrate, cells overexpressing OATP1B1 or VC were seeded in six-well plates in phenol red-free DMEM containing 10% FBS and doxycycline (1 µg/mL) for 24 h. […] Cells were then immediately lysed with 1 mL of 1 N NaOH for 4 h on an orbital shaker at room temperature to measure total radioactivity. Alternatively, cells were trypsinized with 200 µL of TrypLE (Thermo Fisher Scientific, Waltham, MA, USA) for 3–5 min, rinsed with 800 µL of ice-cold washing buffer, and ProteoExtract Native Membrane Protein Extraction Kits (EMD Millipore, Burlington, MA, USA) were used to separate membrane and intracellular fractions. Dissociated cells were then transferred to 1.5-mL Eppendorf tubes. For measurement of total radioactivity, cells were neutralized with 500 µL of 2 M HCl after 4 h. For measurement of total radioactivity in the membrane or intracellular fraction, cells were isolated following the manufacturer’s protocol, as we have reported previously; this procedure is based on a differential extraction procedure under non-denaturing conditions.

[7] = OATP1B2 IC50, HEK293 cells, 0.2 µM EβG, 15 min pre-incubation + 15 min co-incubation

Row | IC50 (OATP1B1 [1]; OATP1B1 IC50, HEK293 cells) [µM] | R value (OATP1B1 [2]) | IC50 (OATP1B2; [7]) [µM] | Molecule | further results
1 | 37 | – | > 50 | CCC(C)n1ncn(-c2ccc(N3CCN(c4ccc(OCC5COC(Cn6cncn6)(c6ccc(Cl)cc6Cl)O5)cc4)CC3)cc2)c1=O (stereo not shown) [Itraconazole] | –
2 | 1.5 | – | 2.2 | CC(=O)N1CCN(c2ccc(OCC3COC(Cn4ccnc4)(c4ccc(Cl)cc4Cl)O3)cc2)CC1 (stereo not shown) [Ketoconazole] | Fraction Unbound (fup) [3]: 3.2%
3 | 1.9 | > 1.1 | > 80 | CC[C@@H]([C@H](C)O)n1ncn(-c2ccc(N3CCN(c4ccc(OC[C@@H]5CO[C@@](Cn6cncn6)(c6ccc(F)cc6F)C5)cc4)CC3)cc2)c1=O [Posaconazole] | IC50 (OATP1B2; IC50 (Figure S7, Relative OATP1B2 Function), HEK293 cells expressing OATP1B2, EβG uptake, value printed in figure panel): > 100 µM; IC50 at 15 min (OATP1B2; mouse, HEK293 cells stably expressing OATP1B2, probe [3H]EβG, 0.2 µM, OATP1B2 IC50, HEK293 cells, 0.2 µM EβG, 15 min pre-incubation + 15 min co-incubation): > 20 µM
4 | 2.5 | > 1.1 | 2.5 | C[C@@H](c1nc(-c2ccc(C#N)cc2)cs1)[C@](O)(Cn1cncn1)c1cc(F)ccc1F [Isavuconazole] | IC50 (OATP1B1 [5]): > 10 µM
5 | 80 | – | > 200 | C[C@@H](c1ncncc1F)[C@](O)(Cn1cncn1)c1ccc(F)cc1F [Voriconazole] | –
6 | 3.5 | – | > 2 | CC(O)C(C)n1ncn(-c2ccc(N3CCN(c4ccc(OCC5COC(Cn6cncn6)(c6ccc(Cl)cc6Cl)O5)cc4)CC3)cc2)c1=O (stereo not shown) [Hydroxy-ITZ, hydroxy-itraconazole] | OATP1B1 inhibitory potency compared with parent drug itraconazole (OATP1B1 [1]; HEK293 cells): more potent inhibitors of OATP1B1 than the parent drug

The remaining lines, values behind:

Row | Molecule | IC50 (OATP1B1 [1]; OATP1B1 IC50, HEK293 cells) [µM] | R value (OATP1B1 [2]) | IC50 (OATP1B2; [7]) [µM] | further results
7 | CC(C)c1nc(CN(C)C(=O)N[C@@H](CCN2CCOCC2)C(=O)N[C@H](CC[C@H](Cc2ccccc2)NC(=O)OCc2cncs2)Cc2ccccc2)cs1 [Cobicistat] | 0.31 | > 1.1 | 0.7 | –
8 | paraformaldehyde | – | – | – | Effect on fluorescence (cell dye level) in competitive counterflow (OATP1B1 [4]): did not decrease fluorescence
9 | CCCCCOc1ccc(-c2ccc(-c3ccc(C(=O)N[C@H]4C[C@@H](O)[C@@H](O)NC(=O)[C@@H]5[C@@H](O)[C@@H](C)CN5C(=O)[C@H]([C@@H](C)O)NC(=O)[C@H]([C@H](O)[C@@H](O)c5ccc(O)cc5)NC(=O)[C@@H]5C[C@@H](O)CN5C(=O)[C@H]([C@@H](C)O)NC4=O)cc3)cc2)cc1 [Anidulafungin] ({pTerphenylCO(4''-OnC5H11)}-[Orn(4R-OH,5R-OH)]T[Hyp][hTyr(3S-OH,4S-OH)]T[Pro(3S-OH,4S-Me)]; lactam 1-C) | 42 | – | – | –
10 | CC[C@H](C)C[C@H](C)CCCCCCCCC(=O)N[C@H]1C[C@@H](O)[C@@H](NCCN)NC(=O)[C@@H]2[C@@H](O)CCN2C(=O)[C@H]([C@H](O)CCN)NC(=O)[C@H]([C@H](O)[C@@H](O)c2ccc(O)cc2)NC(=O)[C@@H]2C[C@@H](O)CN2C(=O)[C@H]([C@@H](C)O)NC1=O [Caspofungin] | 9.2 | – | > 100 | –
11 | OC(Cn1cncn1)(Cn1cncn1)c1ccc(F)cc1F [Fluconazole] | 4100 | – | > 5000 | –
12 | CO[C@H]1/C=C/O[C@@]2(C)Oc3c(C)c(O)c4c(O)c(c(/C=N/N5CCN(C)CC5)c(O)c4c3C2=O)NC(=O)/C(C)=C\C=C\[C@H](C)[C@H](O)[C@@H](C)[C@@H](O)[C@@H](C)[C@H](OC(C)=O)[C@@H]1C [Rifampin] | < 3 | > 1.1 | 2.1 | –
13 | CC(=O)C(C)n1ncn(-c2ccc(N3CCN(c4ccc(OC[C@H]5CO[C@](Cn6cncn6)(c6ccc(Cl)cc6Cl)O5)cc4)CC3)cc2)c1=O (stereo partly shown) [Keto-ITZ, keto-itraconazole] | – | – | – | OATP1B1 inhibitory potency compared with parent drug itraconazole (OATP1B1 [1]; HEK293 cells): more potent inhibitors of OATP1B1 than the parent drug; IC50 (OATP1B1 [1]; read-out: OATP1B1 IC50, HEK293 cells): 8.3 µM
14 | C[C@]12CC[C@@H]3c4ccc(O)cc4CC[C@H]3[C@@H]1CC[C@@H]2O[C@@H]1O[C@H](C(=O)O)[C@@H](O)[C@H](O)[C@H]1O [EβG, Estradiol-17β-D-glucuronide] | – | – | – | Uptake in the intracellular fraction with overexpression of OATP1B1 versus vector (OATP1B1 [6]): significant increases
15 | CCCCCOc1ccc(-c2cc(-c3ccc(C(=O)N[C@H]4C[C@@H](O)[C@@H](O)NC(=O)[C@@H]5[C@@H](O)[C@@H](C)CN5C(=O)[C@H]([C@H](O)CC(N)=O)NC(=O)[C@H]([C@H](O)[C@@H](O)c5ccc(O)c(OS(=O)(=O)O)c5)NC(=O)[C@@H]5C[C@@H](O)CN5C(=O)[C@H]([C@@H](C)O)NC4=O)cc3)no2)cc1 [Micafungin] (X1-[Orn(4R-OH,5R-OH)]T[Hyp][hTyr(3S-OH,4S-OH,3'-OSO3H)][Gln(3R-OH)][Pro(3S-OH,4S-Me)]; lactam 1-C) | 2.1 | > 1.1 | 4.9 | –

Reference: PMC9025810, “Interaction of Antifungal Drugs with CYP3A- and OATP1B-Mediated Venetoclax Elimination” (Pharmaceutics, 2022)
